Data: patent US7348425B2, “Inhibitors of HCV replication” (Bristol-Myers Squibb Company, priority 2004, dated 2008)
pEC50, pIC50: −log10 of the molar value. Read-outs that look alike come from different tables or passages of the source.

Experiments:
HCV replicon = HCV replicon luciferase assay; format: cell-based, Hepatitis C virus; settings: luciferase method, read-out: EC50
How it was run: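 Replicon cells, some carrying a Renilla luciferase reporter, were incubated with titrated compound at 37 °C; Alamar blue measured cytotoxicity, followed by a kinetic FRET peptide read (340/490 nm) or Dual-Glo luciferase. Activity was normalized to untreated controls after subtracting background from high-dose protease inhibitor wells; EC50 was the concentration giving 50% signal reduction.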

[1] = biological target: T1, HCV NS5B RdRp genotype 1b (Hepatitis C virus genotype 1b, UniProt Q9WMX2); test: Standard HCV NS5B RdRp enzyme assay; format: biochemical; settings: standard method
T1 construct: The protein was expressed with an 18 amino acid C-terminal truncation to enhance the solubility; made in house; host or cells: E. coli BL21 (DE3), pET21a
Protocol: HCVNS5B RdRp cloning, expression, and purification. The cDNA encoding the NS5B protein of HCV, genotype 1b, was cloned into the pET21a expression vector. The protein was expressed with an 18 amino acid C-terminal truncation to enhance the solubility. The E. coli competent cell line BL21 (DE3) was used for expression of the protein. Cultures were grown at 37° C. for ˜4 hours until the cultures reached an optical density of 2.0 at 600 nm. The cultures were cooled to 20° C. and induced with 1 mM IPTG. Fresh ampicillin was added to a final concentration of 50 μg/ml and the cells were grown overnight at 20° C.
Cell pellets (3 L) were lysed for purification to yield 15-24 mgs of purified NS5B. The lysis buffer consisted of 20 mM Tris-HCl, pH 7.4, 500 mM NaCl, 0.5% triton X-100, 1 mM DTT, 1 mM EDTA, 20% glycerol, 0.5 mg/ml lysozyme, 10 mM MgCl2, 15 ug/ml deoxyribonuclease I, and Complete TM protease inhibitor tablets (Roche). After addition of the lysis buffer, frozen cell pellets were resuspended using a tissue homogenizer. To reduce the viscosity of the sample, aliquots of the lysate were sonicated on ice using a microtip attached to a Branson sonicator. The sonicated lysate was centrifuged at 100,000×g for 1 hr at 4° C. and filtered through a 0.2 μm filter unit (Corning).
The protein was purified using three sequential chromatography steps: Heparin sepharose CL-6B, polyU sepharose 4B, and Hitrap SP sepharose (Pharmacia). The chromatography buffers were identical to the lysis buffer but contained no lysozyme, deoxyribonuclease I, MgCl2 or protease inhibitor and the NaCl concentration of the buffer was adjusted according to the requirements for charging the protein onto the column. Each column was eluted with a NaCl gradient which varied in length from 5-50 column volumes depending on the column type. After the final chromatography step, the resulting purity of the enzyme is >90% based on SDS-PAGE analysis. The enzyme was aliquoted and stored at −80° C.
Standard HCV NS5B RdRp enzyme assay. HCV RdRp genotype Ib assays were run in a final volume of 60 μl in 96 well plates (Costar 3912). The assay buffer is composed of 20 mM Hepes, pH 7.5, 2.5 mM KCl, 2.5 mM MgCl2, 1 mM DTT, 1.6 U RNAse inhibitor (Promega N2515), 0.1 mg/ml BSA (Promega R3961), and 2% glycerol. All compounds were serially diluted (3-fold) in DMSO and diluted further in water such that the final concentration of DMSO in the assay was 2%. HCV RdRp genotype 1b enzyme was used at a final concentration of 28 nM. A polyA template was used at 6 nM, and a biotinylated oligo-dT12 primer was used at 180 nM final concentration. Template was obtained commercially (Amersham 27-4110). Biotinylated primer was prepared by Sigma Genosys. ^3H-UTP was used at 0.6 μCi (0.29 μM total UTP). Reactions were initiated by the addition of enzyme, incubated at 30° C. for 60 min, and stopped by adding 25 μl of 50 mM EDTA containing SPA beads (4 μg/μl, Amersham RPNQ 0007). Plates were read on a Packard Top Count NXT after >1 hr incubation at room temperature.
The IC50 values for compounds were determined using seven different [I]. IC50 values were calculated from the inhibition using the formula y=A+((B−A)/(1+((C/x)^D))). FRET Assay Preparation. To perform the HCV FRET screening assay, 96-well cell culture plates were used. The FRET peptide (Anaspec, Inc.) (Taliani et al., Anal. Biochem. 240:60-67 (1996), hereby incorporated by reference in its entirety) contains a fluorescence donor, EDANS, near one end of the peptide and an acceptor, DABCYL, near the other end. The fluorescence of the peptide is quenched by […] resonance energy transfer (RET) between the donor and the acceptor, but as the NS3 protease cleaves the peptide the products are released from RET quenching and the fluorescence of the donor becomes apparent. […]

T1 sequence (Q9WMX2 2420-2992): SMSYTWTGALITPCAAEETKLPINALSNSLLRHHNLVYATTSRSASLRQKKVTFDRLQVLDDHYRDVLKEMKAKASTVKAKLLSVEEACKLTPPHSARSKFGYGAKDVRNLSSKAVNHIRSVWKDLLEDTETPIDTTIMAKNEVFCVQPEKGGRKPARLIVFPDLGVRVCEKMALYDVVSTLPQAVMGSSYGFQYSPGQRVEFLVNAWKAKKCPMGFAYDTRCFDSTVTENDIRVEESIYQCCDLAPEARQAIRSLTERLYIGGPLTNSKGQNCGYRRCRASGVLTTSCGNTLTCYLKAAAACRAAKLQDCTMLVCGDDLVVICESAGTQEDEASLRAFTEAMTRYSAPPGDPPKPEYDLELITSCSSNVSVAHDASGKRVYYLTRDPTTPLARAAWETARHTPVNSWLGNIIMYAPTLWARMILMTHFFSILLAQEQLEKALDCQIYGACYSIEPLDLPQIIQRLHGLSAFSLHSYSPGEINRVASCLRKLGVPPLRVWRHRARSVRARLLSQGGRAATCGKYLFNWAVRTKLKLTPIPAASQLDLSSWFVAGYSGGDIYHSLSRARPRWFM

Row | Compound | pEC50 (HCV replicon; Hepatitis C virus) | pIC50 [1] | pEC50 (HCV replicon)
1 | O=C(O)c1ccc2c(C3CCCCC3)c3n(c2c1)CCCc1ncccc1-3 | 6.00 to 7.00 | 6.00 to 7.00 | –
2 | CN(C)CCNC(=O)C1Cc2ccccc2-c2c(C3CCCCC3)c3ccc(C(=O)NS(=O)(=O)N(C)C)cc3n2C1 (stereo not shown) | 6.00 to 7.00 | 6.00 to 7.00 | –
3 | CN1CCN(C(=O)C2Cc3ccccc3-c3c(C4CCCCC4)c4ccc(C(=O)O)cc4n3C2)CC1 (stereo not shown) | 6.00 to 7.00 | 6.00 to 7.00 | –
4 | O=C(O)c1ccc2c(C3CCCCC3)c3n(c2c1)CC(C(=O)N1CCC(N2CCCC2)CC1)Cc1ccccc1-3 (stereo not shown) | 6.00 to 7.00 | 6.00 to 7.00 | –
5 | COC(=O)c1ccc2c(C3CCCCC3)c3n(c2c1)CCCc1ccccc1-3 [Example 2, Methyl 13-cyclohexyl-6,7-dihydro-5H-indolo[2,1-a][2]benzazepine-10-carboxylate] | < 5.00 | < 6.00 | –
6 | O=C(O)c1ccc2c(C3CCCCC3)c3n(c2c1)CCCc1ccccc1-3 [Example 3, 13-cyclohexyl-6,7-dihydro-5H-indolo[2,1-a][2]benzazepine-10-carboxylic acid] | 6.00 to 7.00 | 6.00 to 7.00 | –
7 | COC(=O)c1ccc2c(C3CCCCC3)c3n(c2c1)Cc1ccccc1-3 [Example 6, Methyl 11-cyclohexyl-6H-isoindolo[2,1-a]indole-3-carboxylate] | < 5.00 | < 6.00 | –
8 | O=C(O)c1ccc2c(C3CCCCC3)c3n(c2c1)Cc1ccccc1-3 [Example 7] | < 5.00 | 6.00 to 7.00 | –
9 | COC(=O)c1ccc2c(C3CCCCC3)c3n(c2c1)C(O)c1ccccc1-3 (stereo not shown) [Example 8] | 5.00 to 6.00 | < 6.00 | –
10 | COC(=O)c1ccc2c(C3CCCCC3)c3n(c2c1)CC(=O)Nc1cccnc1-3 [Example 14, Methyl 13-cyclohexyl-6,7-dihydro-6-oxo-5H-pyrido[3′,2′:5,6][1,4]diazepino[1,7-a]indole-10-carboxylate] | < 5.00 | < 6.00 | –
11 | O=C1Cn2c(c(C3CCCCC3)c3ccc(C(=O)O)cc32)-c2ncccc2N1 [Example 15, 13-cyclohexyl-6,7-dihydro-6-oxo-5H-pyrido[3′,2′:5,6][1,4]diazepino[1,7-a]indole-10-carboxylic acid] | 5.00 to 6.00 | 6.00 to 7.00 | –
12 | CCOC(=O)c1cc2ccccc2c2c(C3CCCCC3)c3ccc(C(=O)OC)cc3n12 [Example 16, 6-ethyl-9-methyl-12-cyclohexyl-indolo[2,1-a]isoquinoline-6,9-dicarboxylic acid] | < 5.00 | < 6.00 | –
13 | O=C(O)c1ccc2c(C3CCCCC3)c3n(c2c1)CC=Cc1ccccc1-3 [Example 18, 13-cyclohexyl-7H-indolo[2,1-a][2]benzazepine-10-carboxylic acid] | 5.00 to 6.00 | < 6.00 | –
14 | CN(C)S(=O)(=O)NC(=O)c1ccc2c(C3CCCCC3)c3n(c2c1)CC=Cc1ccccc1-3 [Example 19, 13-cyclohexyl-N-(dimethylaminosulfonyl)-7H-indolo[2,1-a][2]benzazepine-10-carboxamide] | 6.00 to 7.00 | 6.00 to 7.00 | –
15 | COC(=O)c1ccc2c(C3CCCCC3)c3n(c2c1)CC(=O)Nc1ccccc1-3 [Example 20, Methyl 13-cyclohexyl-6,7-dihydro-6-oxo-5H-indolo[1,2-d][1,4]benzodiazepine-10-carboxylate] | 5.00 to 6.00 | < 6.00 | –
16 | O=C1Cn2c(c(C3CCCCC3)c3ccc(C(=O)O)cc32)-c2ccccc2N1 [Example 21, 13-cyclohexyl-6,7-dihydro-6-oxo-5H-indolo[1,2-d][1,4]benzodiazepine-10-carboxylic acid] | 6.00 to 7.00 | 6.00 to 7.00 | –
17 | CN1C(=O)Cn2c(c(C3CCCCC3)c3ccc(C(=O)O)cc32)-c2ccccc21 [Example 22, 13-cyclohexyl-6,7-dihydro-6-oxo-5-methyl-5H-indolo[1,2-d][1,4]benzodiazepine-10-carboxylic acid] | 6.00 to 7.00 | 6.00 to 7.00 | –
18 | O=C(O)CCCc1nc(C2(NC(=O)c3ccc4c(C5CCCCC5)c5n(c4c3)CC=Cc3ccccc3-5)CCCC2)no1 [Example 23, 3-[1-[[(13-cyclohexyl-7H-indolo[2,1-a][2]benzazepin-10-yl)carbonyl]amino]cyclopentyl]-1,2,4-oxadiazole-5-butanoic acid] | 6.00 to 7.00 | < 6.00 | –
19 | O=C(O)c1ccc(-c2nc(C3(NC(=O)c4ccc5c(C6CCCCC6)c6n(c5c4)CC=Cc4ccccc4-6)CCCC3)no2)cc1 [Example 24] | 6.00 to 7.00 | < 6.00 | –
20 | O=C(O)/C=C/c1ccc(-c2nc(C3(NC(=O)c4ccc5c(C6CCCCC6)c6n(c5c4)CC=Cc4ccccc4-6)CCCC3)no2)cc1 [Example 25] | 6.00 to 7.00 | < 6.00 | –
21 | O=C(O)/C=C/c1cccc(-c2nc(C3(NC(=O)c4ccc5c(C6CCCCC6)c6n(c5c4)CC=Cc4ccccc4-6)CCCC3)no2)c1 [Example 26] | 6.00 to 7.00 | < 6.00 | –
22 | O=C(O)/C=C/c1ccc(NC(=O)C2(NC(=O)c3ccc4c(C5CCCCC5)c5n(c4c3)CCCc3ccccc3-5)CCNCC2)cc1 [Example 29, 2-propenoic acid, 3-[4-[[[4-[[(13-cyclohexyl-6,7-dihydro-5H-indolo[2,1-a][2]benzazepin-10-yl)carbonyl]amino]-4-piperidinyl]carbonyl]amino]phenyl]-, (2E)-] | > 7.00 | 6.00 to 7.00 | –
23 | COC(=O)/C=C/c1ccc(NC(=O)C2(NC(=O)c3ccc4c(C5CCCCC5)c5n(c4c3)CC(=O)Nc3cccnc3-5)CCCC2)cc1 [drawing 98] | > 7.00 | < 6.00 | –
24 | O=C(O)c1ccc2c(C3CCCCC3)c3n(c2c1)CC(C(=O)N1CCOCC1)Cc1ccccc1-3 (stereo not shown) [drawing 113] | – | 6.00 to 7.00 | 6.00 to 7.00
25 | O=C(O)c1ccc2c(C3CCCCC3)c3n(c2c1)CC(C(=O)N1CCOCC1)Cc1ccccc1-3 (stereo not shown) [drawing 114] | – | < 6.00 | 5.00 to 6.00
26 | O=C(O)c1ccc2c(C3CCCCC3)c3n(c2c1)CC(C(=O)N1CCOCC1)Cc1ccccc1-3 (stereo not shown) [drawing 115] | – | 6.00 to 7.00 | 6.00 to 7.00
27 | O=C(O)c1ccc2c(C3CCCCC3)c3n(c2c1)CC(C(=O)N1CCCCC1)Cc1ccccc1-3 (stereo not shown) [drawing 116] | – | 6.00 to 7.00 | 6.00 to 7.00
28 | O=C(O)c1ccc2c(C3CCCCC3)c3n(c2c1)CC(C(=O)N1CCCCC1)Cc1ccccc1-3 (stereo not shown) [drawing 117] | – | < 6.00 | 5.00 to 6.00
29 | O=C(O)c1ccc2c(C3CCCCC3)c3n(c2c1)CC(C(=O)N1CCCCC1)Cc1ccccc1-3 (stereo not shown) [drawing 118] | – | 6.00 to 7.00 | 6.00 to 7.00
